Data taken from ChEMBL document CHEMBL4619744, “Evaluation of nitrocatechol chalcone and pyrazoline derivatives as inhibitors of catechol-O-methyltransferase and monoamine oxidase” (Bioorg Med Chem Lett, 2020).

How the values were obtained:
[1] = molecular target: T1, Amine oxidase [flavin-containing] B (Homo sapiens, UniProt P27338); assay: Inhibition of recombinant human MAOB using kynuramine as substrate by fluorescence based assay
T1 sequence (P27338 whole entry): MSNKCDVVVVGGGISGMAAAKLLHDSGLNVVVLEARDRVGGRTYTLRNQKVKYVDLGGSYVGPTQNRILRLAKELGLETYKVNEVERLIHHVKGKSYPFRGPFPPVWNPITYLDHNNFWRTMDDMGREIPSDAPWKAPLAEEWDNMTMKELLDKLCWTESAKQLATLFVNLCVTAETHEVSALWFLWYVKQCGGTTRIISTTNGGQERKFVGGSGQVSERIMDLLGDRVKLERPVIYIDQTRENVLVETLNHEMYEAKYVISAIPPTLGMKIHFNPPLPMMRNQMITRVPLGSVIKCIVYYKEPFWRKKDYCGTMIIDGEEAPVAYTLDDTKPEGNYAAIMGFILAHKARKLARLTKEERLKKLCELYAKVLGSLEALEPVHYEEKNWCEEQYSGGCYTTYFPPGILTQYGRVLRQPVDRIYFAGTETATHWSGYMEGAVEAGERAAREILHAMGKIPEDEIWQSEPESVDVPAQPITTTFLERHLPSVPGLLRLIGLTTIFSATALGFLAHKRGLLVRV

[2] = molecular target: T2, Catechol O-methyltransferase (Rattus norvegicus, UniProt P22734); assay: Inhibition of rat liver COMT using esculetin as substrate by fluorescence based spectrophotometry
T2 sequence (P22734 whole entry): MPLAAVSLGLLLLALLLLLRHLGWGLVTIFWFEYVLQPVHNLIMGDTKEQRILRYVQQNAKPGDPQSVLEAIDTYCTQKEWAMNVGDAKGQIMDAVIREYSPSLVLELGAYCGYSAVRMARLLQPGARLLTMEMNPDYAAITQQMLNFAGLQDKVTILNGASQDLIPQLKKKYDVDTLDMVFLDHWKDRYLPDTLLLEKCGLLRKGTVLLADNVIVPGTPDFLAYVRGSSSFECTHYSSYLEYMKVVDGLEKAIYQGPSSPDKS

[3] = molecular target: T3, Amine oxidase [flavin-containing] A (Homo sapiens, UniProt P21397); assay: Inhibition of recombinant human MAOA using kynuramine as substrate by fluorescence based assay
T3 sequence (P21397 whole entry): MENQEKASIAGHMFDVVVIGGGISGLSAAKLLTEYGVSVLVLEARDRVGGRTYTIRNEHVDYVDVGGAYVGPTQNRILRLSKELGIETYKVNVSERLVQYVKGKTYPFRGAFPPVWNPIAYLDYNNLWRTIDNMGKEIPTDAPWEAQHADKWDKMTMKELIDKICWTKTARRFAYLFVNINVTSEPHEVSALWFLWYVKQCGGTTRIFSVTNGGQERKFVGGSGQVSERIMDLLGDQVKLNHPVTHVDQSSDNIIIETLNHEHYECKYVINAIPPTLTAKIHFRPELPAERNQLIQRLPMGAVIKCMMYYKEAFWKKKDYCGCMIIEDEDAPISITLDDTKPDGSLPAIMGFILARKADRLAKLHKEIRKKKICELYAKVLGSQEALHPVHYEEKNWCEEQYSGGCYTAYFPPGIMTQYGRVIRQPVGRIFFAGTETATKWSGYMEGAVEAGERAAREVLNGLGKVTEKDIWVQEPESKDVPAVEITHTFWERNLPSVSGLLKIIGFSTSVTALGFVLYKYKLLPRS

[4] = molecular target: T3, Amine oxidase [flavin-containing] A; assay: Inhibition of recombinant human MAOA expressed in insect cells measured after 20 mins by fluorescence spectrophotometry
[5] = molecular target: T4, Catechol O-methyltransferase (Homo sapiens, UniProt P21964); assay: Inhibition of COMT (unknown origin)
T4 sequence (P21964 whole entry): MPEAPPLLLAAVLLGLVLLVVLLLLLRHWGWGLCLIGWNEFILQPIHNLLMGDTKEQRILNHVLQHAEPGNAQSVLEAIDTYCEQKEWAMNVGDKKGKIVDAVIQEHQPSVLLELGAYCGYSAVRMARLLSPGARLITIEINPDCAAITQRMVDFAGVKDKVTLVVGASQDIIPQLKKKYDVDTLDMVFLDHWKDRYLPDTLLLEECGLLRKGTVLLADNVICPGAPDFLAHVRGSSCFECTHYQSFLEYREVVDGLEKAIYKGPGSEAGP

[6] = molecular target: T5, Catechol O-methyltransferase (Rattus norvegicus) (UniProt P22734); assay: Potency index, ratio of IC50 of 1-(3,4-dihydroxy-5-nitro-phenyl)-3-(3-methoxyphenyl)prop-2-en-1-one to IC50 of compound for inhibition of rat liver COMT using esculetin as substrate by fluorescence based spectrophotometry
T5 sequence (whole entry): T2 sequence (P22734 whole entry)

[7] = molecular target: T1, Amine oxidase [flavin-containing] B; assay: Inhibition of recombinant human MAOB expressed in insect cells measured after 20 mins by fluorescence spectrophotometry

Structure (SMILES)	IC50 [1]	IC50 [2]	IC50 [3]	IC50 [4]	IC50 [5]	Ratio IC50 [6]	IC50 [7]
O=C(/C=C/c1ccco1)c1cc(O)c(O)c([N+](=O)[O-])c1	68.2 µM	0.23 µM	60.5 µM				
CC(=O)N1N=C(c2cc(O)c(O)c([N+](=O)[O-])c2)CC1c1cccs1 (centres undefined)	69.2 µM	0.21 µM	86.3 µM				
CC(=O)N1N=C(c2cc(O)c(O)c([N+](=O)[O-])c2)CC1c1nccs1 (centres undefined)	68.2 µM	0.16 µM	84.6 µM				
CC(=O)N1N=C(c2cc(O)c(O)c([N+](=O)[O-])c2)CC1c1ccco1 (centres undefined)	77.4 µM	0.18 µM	98 µM				
O=C(/C=C/c1ccoc1)c1cc(O)c(O)c([N+](=O)[O-])c1	71.4 µM	0.29 µM	52.9 µM				
N#Cc1ccc(/C=C/C(=O)c2cc(O)c(O)c([N+](=O)[O-])c2)cc1	56.6 µM	0.18 µM	45.3 µM				
CC(=O)N1N=C(c2cc(O)c(O)c([N+](=O)[O-])c2)CC1c1cccc(C#N)c1 (centres undefined)	55.4 µM	0.079 µM	70.6 µM				
COc1cccc(/C=C/C(=O)c2cc(O)c(O)c([N+](=O)[O-])c2)c1				67.6 µM	0.07 µM		
O=C(/C=C/c1ccsc1)c1cc(O)c(O)c([N+](=O)[O-])c1	42.1 µM	0.23 µM	41.4 µM				
N#Cc1cccc(/C=C/C(=O)c2cc(O)c(O)c([N+](=O)[O-])c2)c1	60.6 µM	0.24 µM	58.9 µM				
CC(=O)N1N=C(c2cc(O)c(O)c([N+](=O)[O-])c2)CC1c1ccc(C#N)cc1 (centres undefined)	83.2 µM	0.048 µM	76.6 µM			1.46	
CC(=O)N1N=C(c2cc(O)c(O)c([N+](=O)[O-])c2)CC1c1ccoc1 (centres undefined)	126 µM	0.18 µM	90.9 µM				
Cn1cc(/C=C/C(=O)c2cc(O)c(O)c([N+](=O)[O-])c2)cn1	66.2 µM	0.29 µM	51.5 µM				
CC(=O)N1N=C(c2cc(O)c(O)c([N+](=O)[O-])c2)CC1c1cccc(O)c1 (centres undefined)	85.2 µM	0.075 µM	87 µM				
O=C(/C=C/c1nccs1)c1cc(O)c(O)c([N+](=O)[O-])c1	59.2 µM	0.24 µM	69.6 µM				
O=C(/C=C/c1cccs1)c1cc(O)c(O)c([N+](=O)[O-])c1	62.9 µM	0.19 µM	49.9 µM				
O=C(/C=C/c1cccc(O)c1)c1cc(O)c(O)c([N+](=O)[O-])c1	55.8 µM	0.14 µM	43.9 µM				
O=C(/C=C/c1cccc(Br)c1)c1cc(O)c(O)c([N+](=O)[O-])c1				76.1 µM	0.29 µM		13.9 µM
